In patent US10610538B2, “Pradimicin derivatives for the treatment of diseases caused by kinetoplastids” (KATHOLIEKE UNIVERSITEIT LEUVEN, priority 2013, dated 2020):
In brackets after ≈: the same amount, converted by molar mass. Like-named read-outs stand apart in the source and are kept apart here.

Tests used:
T. cruzi trypomastigotes = test: Lysis of T. cruzi trypomastigotes (resazurin); assay type: cell-based, Trypanosoma cruzi Tulahuen strain C4; conditions: 24 h, half-maximal lysis
Protocol: (§1) Activity of pradimicin A (PRM-A) and S (PRM-S) against T. cruzi was studied in epimastigote and trypomastigote forms of T. cruzi Tulahuen strain C4.
(§2) In the case of epimastigote forms, 2×10^5 parasites were seeded in a 96-wells plate (100 μL) and incubated 3 days with different drug concentrations between 0.0625 μg·mL^−1 and 100 μg·mL^−1 in liver infusion tryptose (LIT) medium supplemented with 10% fetal calf serum at 28° C. In the case of trypomastigotes, 1×10^5 parasites were seeded in a 96-well plate (100 μL) and incubated with different drug concentrations between 0.006 μg·mL^−1 and 12.5 μg·mL^−1 for 24 h in RPMI 1640 medium supplemented with 10% FBS, 2 mM L-glutamine, 100 U·mL^−1 penicillin and 100 μg·mL^−1 streptomycin at 37° C. and 5% CO2. Cell viability of epimastigotes and lysis percentage of trypomastigotes were determined by adding 10 μL of resazurin (0.11 mg·mL^−1 in PBS) and measuring fluorescence at 570/590 nm of excitation/emission wavelength after 2 h of incubation using a Spectramax Gemini EM microplate fluorometer (Molecular Devices Cooperation, Sunnyvale, Calif., USA). EC50 or 50% lysis values were defined as the drug concentration required for half-maximal inhibition of the cellular growth rate or half-maximal lysis and were calculated by nonlinear regression analysis.

T. brucei BSF = test: In vitro growth inhibition of T. brucei bloodstream forms; assay type: cell-based, Trypanosoma brucei brucei
Protocol: Trypanosoma brucei brucei single-marker bloodstream forms (BSF) (antigenic type 1.2, MITat 1.2, clone 221a) strain 427, harbouring T7 RNA polymerase and the tetracycline repressor (Wirtz et al., 1999) and Trypanosoma brucei rhodesiense EATRO3 ETat1.2 TREU164 (Turner et al., 2004) were used in this study. Bloodstream forms were cultured at 37° C. and 5% CO2 in HMI-9 supplemented with 10% (v/v) or 20% fetal bovine serum, respectively. The non-peptidic CBAs pradimicin A (PRM-A, derived from Actinomadura hibisca) (Oki et al., 1988) and pradimicin S (PRM-S, derived from Actinomadura spinosa strain A A08 51) (Saitoh et al., 1993) were tested for inhibition of parasite growth.

[1] = test system: L. donovani promastigotes; test: In vitro activity against L. donovani promastigotes (proliferation, cell counting); assay type: cell-based, Leishmania donovani MHOM/ET/67HU3; conditions: 48 h
Protocol: (§3) Activity of pradimicin A (PRM-A) and S (PRM-S) was tested against promastigote and amastigote forms of L. donovani MHOM/ET/67HU3.
In the case of the promastigote forms, 2.5×10^4 parasites were incubated in 24-well plates (1 mL) for 48 h at different drug concentrations between 0.391 μg·mL^−1 and 50 μg·mL^−1 in RPMI 1640 modified supplemented with 20% FBS, 2 mM L-glutamine, 100 U·mL^−1 penicillin and 100 μg·mL^−1 of streptomycin. The proliferation was determined by counting the number of cells using a Z1 Coulter counter. EC50 values were calculated by nonlinear regression analysis.

L. donovani amastigotes = test: In vitro activity against intracellular L. donovani amastigotes in mouse peritoneal macrophages; assay type: cell-based, Leishmania donovani MHOM/ET/67HU3; conditions: 72 h
Protocol: as §3
To determine activity against the amastigote form, 1×10^5 mouse peritoneal macrophages were seeded in 24-well tissue culture chamber slides using RPMI 1640 medium supplemented with 10% HIFBS, 2 mM L-glutamine, 100 U·mL-1 penicillin and 100 μg·mL^−1 streptomycin. Compounds were added and cells were then infected with late-stage promastigotes at a macrophage/parasite ratio of 1:10. After 8 h of infection at 35° C. and 5% CO2, extracellular parasites were removed by washing with serum-free medium, and infected macrophage cultures were incubated with different CBA concentrations for 72 h in RPMI 1640 medium plus 10% HIFBS at 37° C. with 5% CO2. After that, macrophages were fixed with 2.5% p-formaldehyde in PBS for 30 min at 4° C., permeabilized with 0.1% Triton X-100 in PBS for 30 min, and incubated with Gold antifade reagent plus DAPI in order to detect the intracellular parasites. Drug activity was determined from the percentage of infected cells and from the number of amastigotes per cell in drug-treated versus non-treated cultures.

Macrophages = test: Toxicity in macrophages; assay type: cell-based, mouse
T. cruzi epimastigotes = test: In vitro activity against T. cruzi epimastigotes (resazurin viability); assay type: cell-based, Trypanosoma cruzi Tulahuen strain C4; conditions: 3 days
Protocol: as §1, §2

T. b. rhodesiense EATRO3 = test: In vivo activity of PRM-S in BALB/c mice infected with T. b. rhodesiense EATRO3; conditions: for MRD (mean relapse day) / MSD (mean survival day) / cured/infected: BALB/c; for cured/infected: from day 3 post-infection
Text: (§4) In order to establish the trypanocidal capacity of PRM-S, C57BL/6J or BALB/c mice were infected with T. b. brucei 427 or T. b. rhodesiense EATRO3 strains, respectively, and infection was allowed to proceed for 3 days before treatment with PRM-S, one dosage per day for 4 days.
(§5) Female C57BL/6 or BALB/c mice (Jackson Laboratories, Bar Harbor, Me.) were split in groups containing between three and six mice (6-8 weeks old), and infected via intraperitoneal route with 5×10^3 (T. b. brucei strain 427) or 1×10^4 (T. b. rhodesiense EATRO3) trypanosomes, respectively. Different dosages of PRM-S ([…] and 50 mg·kg^−1) were administered once/day intraperitoneally (200 μL) for 4 days starting on the third day post-infection, in 0.5% w/v hydroxypropylmethylcellulose (HPMC), 0.4% v/v Tween 80 and 0.5% v/v benzyl alcohol used as dosage formulation. One group of mice in each case was also infected and treated with the vehicle as control, Parasitaemia was monitored daily in a haematocytometer under a microscope from the third day post-infection and after tail blood extraction.

T. b. brucei 427 = test: In vivo activity of PRM-S in C57BL/6J mice infected with T. b. brucei 427; conditions: for MRD (mean relapse day) / MSD (mean survival day) / cured/infected: C57BL/6J; for cured/infected: from day 3 post-infection
Text: as §4, §5

[2] = read-out: EC50 (% Lysis) T. cruzi
[3] = 4 × 25 mg·kg^−1 i.p., listed as PRMS
[4] = 4 × 50 mg·kg^−1 i.p., listed as PRMS

Compound | EC50 (T. brucei BSF) [µM] | EC50 (μg · mL^−1) (T. brucei BSF) [µg/mL] | EC50 [1] [µM] | EC50 (μg · mL^−1) [1] [µg/mL] | EC50 (L. donovani amastigotes) [µM] | EC50 (μg · mL^−1) (L. donovani amastigotes) [µg/mL] | EC50 (Macrophages) [µM] | EC50 (μg · mL^−1) (Macrophages) [µg/mL] | EC50 (T. cruzi epimastigotes) [µM] | EC50 (μg · mL^−1) (T. cruzi epimastigotes) [µg/mL] | EC50 (% Lysis) T. cruzi (T. cruzi trypomastigotes) [µg/mL] | EC50 (T. cruzi trypomastigotes; [2]) [µM] | other results
O=C(Cn1ccnc1[N+](=O)[O-])NCc1ccccc1 [Benznidazole, reference compound] | – | – | – | – | – | – | – | – | – | – | – | – | EC50 (T. cruzi trypomastigotes; Trypanosoma cruzi, read-out: EC50 (% Lysis) T. cruzi): 5.2 ± 0.2 µM; EC50 (T. cruzi trypomastigotes; Trypanosoma cruzi, read-out: EC50 (% Lysis) T. cruzi (μg · mL^−1)): 1.35 ± 0.05 µg/mL
CN[C@@H]1[C@H](O[C@@H]2OC[C@@H](O)[C@H](O)[C@H]2O)[C@@H](O)[C@H](O[C@H]2c3cc(C)c(C(=O)N[C@H](C)C(=O)O)c(O)c3-c3c(cc4c(c3O)C(=O)c3cc(OC)cc(O)c3C4=O)[C@@H]2O)O[C@@H]1C [PRM-A, pradimicin A] | 3.8 ± 0.05 | 3.20 ± 0.04 (≈ 3.81 µM) | 21.4 ± 0.8 | 18.0 ± 0.7 (≈ 21.4 µM) | 0.8 ± 0.1 | 0.7 ± 0.1 (≈ 0.833 µM) | > 100 | >100 | 28.1 ± 1.3 | 23.6 ± 1.1 (≈ 28.1 µM) | 1.0 ± 0.3 (≈ 1.19 µM) | 1.2 ± 0.3 | –
CN[C@@H]1[C@H](O[C@@H]2O[C@H](CO)[C@@H](O)[C@H](OS(=O)(=O)O)[C@H]2O)[C@@H](O)[C@H](O[C@@H]2c3cc(C)c(C(=O)N[C@H](CO)C(=O)O)c(O)c3-c3c(cc4c(c3O)C(=O)c3cc(OC)cc(O)c3C4=O)[C@H]2O)O[C@@H]1C [PRM-FS, Pradimicin-FS] | 13.5 ± 0.8 | 13.0 ± 0.7 (≈ 13.4 µM) | 50.8 ± 2.1 | 49.1 ± 2.0 (≈ 50.8 µM) | – | – | – | – | – | – | – | – | –
CN[C@@H]1[C@H](O[C@@H]2O[C@H](CO)[C@@H](O)[C@H](OS(=O)(=O)O)[C@H]2O)[C@@H](O)[C@H](O[C@H]2c3cc(C)c(C(=O)N[C@H](C)C(=O)O)c(O)c3-c3c(cc4c(c3O)C(=O)c3cc(OC)cc(O)c3C4=O)[C@@H]2O)O[C@@H]1C [PRM-S, pradimicin S] | 6.44 ± 0.08 | 5.85 ± 0.08 (≈ 6.15 µM) | 22.9 ± 1.9 | 21.8 ± 1.9 (≈ 22.9 µM) | 2.3 ± 0.3 | 2.2 ± 0.2 (≈ 2.31 µM) | > 100 | >100 | 19 ± 2.6 | 17.3 ± 2.4 (≈ 18.2 µM) | 1.2 ± 0.3 (≈ 1.26 µM) | 1.4 ± 0.3 | mice in which parasitaemia appeared subsequently (relapse) (T. b. rhodesiense EATRO3; 25 mg·kg^−1): three of the five mice; MRD (mean relapse day) (T. b. rhodesiense EATRO3; 4 × 25 mg·kg^−1 i.p.): 10.7 ± 0.6 days; MSD (mean survival day) (T. b. rhodesiense EATRO3; 4 × 25 mg·kg^−1 i.p.): 44.4 ± 41.7 days; MRD (mean relapse day) (T. b. rhodesiense EATRO3; [3]): 10.7 ± 0.6 days; MSD (mean survival day) (T. b. rhodesiense EATRO3; [3]): 44.4 ± 41.7 days; cured/infected (T. b. rhodesiense EATRO3; 4 × 25 mg·kg^−1 i.p.): 2/5; MSD (mean survival day) (T. b. rhodesiense EATRO3; 4 × 50 mg·kg^−1 i.p.): > 90 days; MSD (mean survival day) (T. b. rhodesiense EATRO3; [4]): >90 days; cured/infected (T. b. rhodesiense EATRO3; 4 × 50 mg·kg^−1 i.p.): 5/5; parasitaemia (T. b. rhodesiense EATRO3; both dosages (25 and 50 mg·kg^−1), after the first administration): drastically reduced; MRD (mean relapse day) (T. b. brucei 427; 4 × 25 mg·kg^−1 i.p.): 10.7 ± 0.6 days; MSD (mean survival day) (T. b. brucei 427; 4 × 25 mg·kg^−1 i.p.): 18.0 ± 7 days; MRD (mean relapse day) (T. b. brucei 427; [3]): 10.7 ± 0.6 days; MSD (mean survival day) (T. b. brucei 427; [3]): 18.0 ± 7 days; cured/infected (T. b. brucei 427; 4 × 25 mg·kg^−1 i.p.): 0/3; MSD (mean survival day) (T. b. brucei 427; 4 × 50 mg·kg^−1 i.p.): > 90 days; MSD (mean survival day) (T. b. brucei 427; [4]): >90 days; cured/infected (T. b. brucei 427; 4 × 50 mg·kg^−1 i.p.): 6/6; parasitaemia (T. b. brucei 427; after the first dose of 50 mg·kg^−1): dramatic decrease of parasitaemia; parasitaemia (T. b. brucei 427; after the third dose of 25 mg·kg^−1): dramatic decrease of parasitaemia
